Reference: article PMC7271948, “A baculoviral system for the production of human β-glucocerebrosidase enables atomic resolution analysis” (Acta Crystallographica. Section D, Structural Biology, 2020)

Tests used:
[1] = molecular target: T1, β-glucocerebrosidase (GBA) (Homo sapiens, UniProt P04062); experiment: X-ray crystal structure at […] Å, crystals soaked with 2F-DNPGlc; format: binding
T1 construct: gene GBA1
T1 sequence (P04062 40-536): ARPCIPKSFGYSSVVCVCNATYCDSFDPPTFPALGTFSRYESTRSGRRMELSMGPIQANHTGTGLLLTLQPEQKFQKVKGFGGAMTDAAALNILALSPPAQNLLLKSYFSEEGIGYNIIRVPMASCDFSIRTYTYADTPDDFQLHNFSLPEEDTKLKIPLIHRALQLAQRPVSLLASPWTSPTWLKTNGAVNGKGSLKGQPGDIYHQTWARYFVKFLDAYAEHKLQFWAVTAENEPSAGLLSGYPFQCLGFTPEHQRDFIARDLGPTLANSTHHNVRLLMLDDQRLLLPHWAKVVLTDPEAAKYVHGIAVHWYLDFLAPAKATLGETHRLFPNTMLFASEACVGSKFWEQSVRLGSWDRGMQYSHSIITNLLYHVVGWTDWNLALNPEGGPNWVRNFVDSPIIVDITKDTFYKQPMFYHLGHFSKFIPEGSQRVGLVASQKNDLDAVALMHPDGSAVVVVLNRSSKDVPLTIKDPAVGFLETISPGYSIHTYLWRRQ

[2] = molecular target: T1, β-glucocerebrosidase (GBA); experiment: X-ray crystal structure at […] Å; IC50 against 4-MU-Glc hydrolysis at pH […]; format: biochemical

IC50 [2] [mM]	Compound	X-ray crystal structure at 1.41 Å, crystals soaked with 2F-DNPGlc [1]
	O=[N+]([O-])c1ccc(O[C@@H]2O[C@H](CO)[C@@H](O)[C@H](O)[C@H]2F)c([N+](=O)[O-])c1 [2F-DNPGlc, 2,4-dinitrophenyl-2-deoxy-2-fluoro-β-D-glucopyranoside]	showing unambiguous electron density for covalent binding of the 2-deoxy-2-fluoroglucose moiety to the catalytic nucleophile
4.31 ± 0.42	OCC(CO)(CO)NCCCNC(CO)(CO)CO [BTP, bis-Tris propane]	
